Experiment: xn = mol fraction of the nth substance listed

CCCC[P+](CCCC)(CCCC)CCCC.[O-]c1cccnc1 + O=C=O
Conditions | viscosity [mPa·s]
293 K, 101 kPa, x2 = 0.5098 | 90000

CC[NH3+].O=[N+]([O-])[O-] + C[N+](=O)[O-]
298.15 K, 101 kPa
Conditions | electrical conductivity [S/m] | viscosity [mPa·s]
x1 = 0.0084 | 0.0847 | 0.671
x2 = 0 | 2.27 | 37.5
x2 = 0.5996 | 2.42 | 5.95

CC[n+]1ccn(C)c1.N#C[S-] + O
100 kPa
Conditions | viscosity [mPa·s]
288.15 K, x2 = 0.9443 | 1.96
293.15 K, x2 = 0.1006 | 22.55
293.15 K, x2 = 0.7981 | 4.08
293.15 K, x2 = 0.9105 | 2.27
303.15 K, x2 = 0.1948 | 13.75
303.15 K, x2 = 0.4011 | 9.55
303.15 K, x2 = 0.6887 | 4.72
308.15 K, x2 = 0 | 16.39
308.15 K, x2 = 0.1948 | 12.02
308.15 K, x2 = 0.6043 | 5.31
308.15 K, x2 = 0.6887 | 4.19
313.15 K, x2 = 0.1006 | 12.15
313.15 K, x2 = 0.9105 | 1.44
313.15 K, x2 = 0.9506 | 1.07
318.15 K, x2 = 0 | 12.43
318.15 K, x2 = 0.1948 | 9.38

CCCCCCCC[n+]1ccccc1.[Br-] + NCC(=O)O + O
100 kPa
Conditions | electrical conductivity [S/m]
288.15 K, x2 = 0.0008947, x1 = 0.006107 | 1.24
288.15 K, x2 = 0.000895, x1 = 0.005825 | 1.21
288.15 K, x2 = 0.0008952, x1 = 0.005524 | 1.18
288.15 K, x2 = 0.0008955, x1 = 0.005206 | 1.15
288.15 K, x2 = 0.0008958, x1 = 0.004856 | 1.11
288.15 K, x2 = 0.0008962, x1 = 0.004472 | 1.07
288.15 K, x2 = 0.0008965, x1 = 0.004053 | 1
288.15 K, x2 = 0.0008969, x1 = 0.003596 | 0.923
288.15 K, x2 = 0.0008974, x1 = 0.003095 | 0.831
288.15 K, x2 = 0.0008979, x1 = 0.00254 | 0.716
288.15 K, x2 = 0.0008984, x1 = 0.00193 | 0.579
288.15 K, x2 = 0.0008988, x1 = 0.001523 | 0.48
288.15 K, x2 = 0.0008992, x1 = 0.00113 | 0.377
288.15 K, x2 = 0.0008996, x1 = 0.000679 | 0.257
288.15 K, x2 = 0.001793, x1 = 0.003383 | 0.886
288.15 K, x2 = 0.001794, x1 = 0.002789 | 0.766
288.15 K, x2 = 0.001795, x1 = 0.002127 | 0.621
288.15 K, x2 = 0.001796, x1 = 0.00171 | 0.522
288.15 K, x2 = 0.001797, x1 = 0.0007678 | 0.279
288.15 K, x2 = 0.001797, x1 = 0.001253 | 0.407
293.15 K, x2 = 0.0008947, x1 = 0.006101 | 1.41
293.15 K, x2 = 0.000895, x1 = 0.005819 | 1.38
293.15 K, x2 = 0.0008952, x1 = 0.005519 | 1.34
293.15 K, x2 = 0.0008955, x1 = 0.005201 | 1.3
293.15 K, x2 = 0.0008958, x1 = 0.00485 | 1.26
293.15 K, x2 = 0.0008962, x1 = 0.004469 | 1.21
293.15 K, x2 = 0.0008965, x1 = 0.00405 | 1.13
293.15 K, x2 = 0.0008969, x1 = 0.003594 | 1.05
293.15 K, x2 = 0.0008974, x1 = 0.003091 | 0.935
293.15 K, x2 = 0.0008979, x1 = 0.002538 | 0.809
293.15 K, x2 = 0.0008985, x1 = 0.001923 | 0.652
293.15 K, x2 = 0.0008988, x1 = 0.001521 | 0.542
293.15 K, x2 = 0.0008992, x1 = 0.00113 | 0.423
293.15 K, x2 = 0.0008996, x1 = 0.000679 | 0.285
293.15 K, x2 = 0.001793, x1 = 0.003379 | 1
293.15 K, x2 = 0.001794, x1 = 0.002785 | 0.864
293.15 K, x2 = 0.001795, x1 = 0.002125 | 0.701
293.15 K, x2 = 0.001796, x1 = 0.001708 | 0.589
293.15 K, x2 = 0.001797, x1 = 0.0007678 | 0.312
293.15 K, x2 = 0.001797, x1 = 0.001251 | 0.458
298.15 K, x2 = 0.0008947, x1 = 0.006092 | 1.59
298.15 K, x2 = 0.000895, x1 = 0.005812 | 1.55
298.15 K, x2 = 0.0008952, x1 = 0.005512 | 1.51
298.15 K, x2 = 0.0008955, x1 = 0.005195 | 1.47
298.15 K, x2 = 0.0008958, x1 = 0.004845 | 1.42
298.15 K, x2 = 0.0008962, x1 = 0.004462 | 1.35
298.15 K, x2 = 0.0008965, x1 = 0.004044 | 1.27
298.15 K, x2 = 0.000897, x1 = 0.003589 | 1.18
298.15 K, x2 = 0.0008974, x1 = 0.003088 | 1.05
298.15 K, x2 = 0.0008979, x1 = 0.002534 | 0.906
298.15 K, x2 = 0.0008985, x1 = 0.001921 | 0.725
298.15 K, x2 = 0.0008988, x1 = 0.001519 | 0.603
298.15 K, x2 = 0.0008992, x1 = 0.001128 | 0.473
298.15 K, x2 = 0.0008996, x1 = 0.0006772 | 0.315
298.15 K, x2 = 0.001793, x1 = 0.003376 | 1.11
298.15 K, x2 = 0.001794, x1 = 0.002781 | 0.967
298.15 K, x2 = 0.001795, x1 = 0.002123 | 0.782
298.15 K, x2 = 0.001796, x1 = 0.001706 | 0.657
298.15 K, x2 = 0.001797, x1 = 0.000766 | 0.347
298.15 K, x2 = 0.001797, x1 = 0.001249 | 0.511
303.15 K, x2 = 0.0008947, x1 = 0.006085 | 1.78
303.15 K, x2 = 0.000895, x1 = 0.005803 | 1.74
303.15 K, x2 = 0.0008952, x1 = 0.005503 | 1.69
303.15 K, x2 = 0.0008955, x1 = 0.005188 | 1.64
303.15 K, x2 = 0.0008958, x1 = 0.004838 | 1.58
303.15 K, x2 = 0.0008962, x1 = 0.004456 | 1.51
303.15 K, x2 = 0.0008965, x1 = 0.004039 | 1.42
303.15 K, x2 = 0.000897, x1 = 0.003583 | 1.3
303.15 K, x2 = 0.0008974, x1 = 0.003082 | 1.17
303.15 K, x2 = 0.0008979, x1 = 0.002531 | 1
303.15 K, x2 = 0.0008985, x1 = 0.001917 | 0.791
303.15 K, x2 = 0.0008988, x1 = 0.001517 | 0.654
303.15 K, x2 = 0.0008992, x1 = 0.001126 | 0.519
303.15 K, x2 = 0.0008996, x1 = 0.0006772 | 0.351
303.15 K, x2 = 0.001793, x1 = 0.00337 | 1.24
303.15 K, x2 = 0.001794, x1 = 0.002778 | 1.08
303.15 K, x2 = 0.001795, x1 = 0.002119 | 0.859
303.15 K, x2 = 0.001796, x1 = 0.001704 | 0.719
303.15 K, x2 = 0.001797, x1 = 0.000766 | 0.383
303.15 K, x2 = 0.001797, x1 = 0.001247 | 0.566
308.15 K, x2 = 0.0008947, x1 = 0.006075 | 2.03
308.15 K, x2 = 0.000895, x1 = 0.005792 | 1.97
308.15 K, x2 = 0.0008952, x1 = 0.005494 | 1.9
308.15 K, x2 = 0.0008955, x1 = 0.005178 | 1.84
308.15 K, x2 = 0.0008958, x1 = 0.004829 | 1.75
308.15 K, x2 = 0.0008962, x1 = 0.004449 | 1.66
308.15 K, x2 = 0.0008966, x1 = 0.004032 | 1.57
308.15 K, x2 = 0.000897, x1 = 0.003578 | 1.44
308.15 K, x2 = 0.0008974, x1 = 0.003077 | 1.26
308.15 K, x2 = 0.0008979, x1 = 0.002527 | 1.07
308.15 K, x2 = 0.0008985, x1 = 0.001914 | 0.861
308.15 K, x2 = 0.0008988, x1 = 0.001516 | 0.717
308.15 K, x2 = 0.0008992, x1 = 0.001125 | 0.574
308.15 K, x2 = 0.0008996, x1 = 0.0006754 | 0.425
308.15 K, x2 = 0.001793, x1 = 0.003365 | 1.36
308.15 K, x2 = 0.001794, x1 = 0.002774 | 1.17
308.15 K, x2 = 0.001795, x1 = 0.002116 | 0.934
308.15 K, x2 = 0.001796, x1 = 0.001701 | 0.79
308.15 K, x2 = 0.001797, x1 = 0.0007642 | 0.453
308.15 K, x2 = 0.001797, x1 = 0.001245 | 0.624

— the CheMixHub ionic liquid set
